In ChEMBL document CHEMBL5030545, “Discovery of clinical candidate Sivopixant (S-600918): Lead optimization of dioxotriazine derivatives as selective P2X3 receptor antagonists” (Bioorg Med Chem Lett, 2021):
Converted amounts (≈) assume the structure as drawn.

How the values were obtained:
Rattus norvegicus [1] = assay: Analgesic activity in po dosed rat model of partial sciatic nerve ligation-induced neuropathic pain; type: functional
[2] = AUC in rat at 3 mg/kg, po; type: ADME, organism-based; set-up: dose 3 mg/kg; settings: in vivo
P2X purinoceptor 7 = biological target: T1, P2X purinoceptor 7 (Homo sapiens, UniProt Q99572); assay: Antagonist activity at P2X7 receptor (unknown origin)
T1 sequence (Q99572 whole entry): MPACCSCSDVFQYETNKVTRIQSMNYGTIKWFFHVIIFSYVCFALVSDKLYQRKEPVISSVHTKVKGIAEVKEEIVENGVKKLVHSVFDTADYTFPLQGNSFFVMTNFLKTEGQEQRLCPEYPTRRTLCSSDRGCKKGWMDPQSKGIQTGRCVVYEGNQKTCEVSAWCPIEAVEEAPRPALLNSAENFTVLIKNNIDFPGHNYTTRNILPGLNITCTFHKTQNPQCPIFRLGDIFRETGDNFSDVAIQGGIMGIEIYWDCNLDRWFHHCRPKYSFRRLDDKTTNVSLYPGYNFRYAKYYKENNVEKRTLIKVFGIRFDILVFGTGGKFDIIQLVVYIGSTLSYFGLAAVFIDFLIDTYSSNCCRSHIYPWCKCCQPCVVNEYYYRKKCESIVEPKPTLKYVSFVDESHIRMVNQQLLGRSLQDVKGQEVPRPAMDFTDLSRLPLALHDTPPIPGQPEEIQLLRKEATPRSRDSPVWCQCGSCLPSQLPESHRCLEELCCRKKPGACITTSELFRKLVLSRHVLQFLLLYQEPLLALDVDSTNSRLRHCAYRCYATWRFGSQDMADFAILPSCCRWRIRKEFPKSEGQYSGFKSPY

[3] = Solubility of the compound in pH 1.2 JP1 fluid; type: physicochemical
P2X purinoceptor 4 = biological target: T2, P2X purinoceptor 4 (Homo sapiens, UniProt Q99571); assay: Antagonist activity at P2X4 receptor (unknown origin)
T2 sequence (Q99571 whole entry): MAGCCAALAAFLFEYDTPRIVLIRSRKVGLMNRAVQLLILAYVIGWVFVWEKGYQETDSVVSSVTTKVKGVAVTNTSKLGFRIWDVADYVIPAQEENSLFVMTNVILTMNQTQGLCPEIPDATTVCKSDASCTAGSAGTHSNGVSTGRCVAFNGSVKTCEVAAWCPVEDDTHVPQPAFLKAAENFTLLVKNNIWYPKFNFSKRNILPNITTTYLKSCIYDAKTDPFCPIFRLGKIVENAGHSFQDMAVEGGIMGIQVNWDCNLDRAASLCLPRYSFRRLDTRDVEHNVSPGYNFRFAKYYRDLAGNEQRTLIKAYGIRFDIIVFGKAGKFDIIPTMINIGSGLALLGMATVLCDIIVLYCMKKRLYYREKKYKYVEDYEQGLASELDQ

P2X purinoceptor 1 = biological target: T3, P2X purinoceptor 1 (Homo sapiens, UniProt P51575); assay: Antagonist activity at P2X1 receptor (unknown origin)
T3 sequence (P51575 whole entry): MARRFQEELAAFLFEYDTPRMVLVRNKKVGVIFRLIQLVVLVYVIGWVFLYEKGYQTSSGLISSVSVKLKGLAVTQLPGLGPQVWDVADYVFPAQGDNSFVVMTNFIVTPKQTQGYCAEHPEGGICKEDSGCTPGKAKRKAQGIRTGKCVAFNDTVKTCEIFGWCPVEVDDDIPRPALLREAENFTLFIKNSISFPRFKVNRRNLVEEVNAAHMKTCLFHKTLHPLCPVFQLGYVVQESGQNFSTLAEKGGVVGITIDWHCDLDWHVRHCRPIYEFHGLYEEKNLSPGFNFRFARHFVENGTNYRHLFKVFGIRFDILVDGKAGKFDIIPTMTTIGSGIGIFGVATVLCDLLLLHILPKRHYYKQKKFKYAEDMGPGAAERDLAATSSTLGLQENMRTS

[4] = Free plasma concentration in rat plasma at 1 mg/kg administered as cassette dose; type: ADME, organism-based; settings: in vivo
[5] = Clearance in rat at 1 mg/kg, iv; type: ADME, organism-based; settings: in vivo
P2X purinoceptor 2 = biological target: T4, P2X purinoceptor 2 (Homo sapiens, UniProt Q9UBL9); assay: Antagonist activity at P2X2 receptor (unknown origin)
T4 sequence (Q9UBL9 whole entry): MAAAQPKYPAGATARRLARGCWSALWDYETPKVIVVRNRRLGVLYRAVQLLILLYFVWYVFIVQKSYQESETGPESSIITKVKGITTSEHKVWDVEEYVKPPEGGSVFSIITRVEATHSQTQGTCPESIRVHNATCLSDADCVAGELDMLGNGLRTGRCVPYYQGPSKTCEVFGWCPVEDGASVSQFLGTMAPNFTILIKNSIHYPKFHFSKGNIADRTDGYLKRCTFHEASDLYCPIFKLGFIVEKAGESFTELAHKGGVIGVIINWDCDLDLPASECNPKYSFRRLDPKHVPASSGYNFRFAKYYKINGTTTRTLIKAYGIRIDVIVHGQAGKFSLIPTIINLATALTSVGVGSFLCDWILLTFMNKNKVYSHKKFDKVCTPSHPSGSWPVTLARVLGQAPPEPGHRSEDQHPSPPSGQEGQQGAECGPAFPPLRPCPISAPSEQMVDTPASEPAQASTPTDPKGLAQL

[6] = Ratio of free plasma concentration in rat measured after 3 hrs to IC50 of P2X3 (unknown origin); type: ADME
Rattus norvegicus [7] = assay: Analgesic activity in rat model of partial sciatic nerve ligation-induced neuropathic pain assessed as reversal of allodynia at 3 mg/kg, po measured after 3 hrs relative to control; type: functional
[8] = Oral bioavailability in rat at 1 mg/kg administered as cassette dose; type: ADME, organism-based; settings: in vivo
[9] = Protein binding in rat plasma assessed as unbound fraction at 1 mg/kg administered as cassette dose; type: ADME, organism-based
Cytochrome P450 2C9 = Cytochrome P450 2C9 (Homo sapiens, UniProt P11712); assay: Inhibition of CYP2C9 (unknown origin); type: ADME
Cytochrome P450 2C19 = Cytochrome P450 2C19 (Homo sapiens, UniProt P33261); assay: Inhibition of CYP2C19 (unknown origin); type: ADME
P2X purinoceptor 3 = biological target: T5, P2X purinoceptor 3 (Rattus norvegicus, UniProt P49654); assay: Antagonist activity at rat P2X3 receptor
T5 sequence (P49654 whole entry): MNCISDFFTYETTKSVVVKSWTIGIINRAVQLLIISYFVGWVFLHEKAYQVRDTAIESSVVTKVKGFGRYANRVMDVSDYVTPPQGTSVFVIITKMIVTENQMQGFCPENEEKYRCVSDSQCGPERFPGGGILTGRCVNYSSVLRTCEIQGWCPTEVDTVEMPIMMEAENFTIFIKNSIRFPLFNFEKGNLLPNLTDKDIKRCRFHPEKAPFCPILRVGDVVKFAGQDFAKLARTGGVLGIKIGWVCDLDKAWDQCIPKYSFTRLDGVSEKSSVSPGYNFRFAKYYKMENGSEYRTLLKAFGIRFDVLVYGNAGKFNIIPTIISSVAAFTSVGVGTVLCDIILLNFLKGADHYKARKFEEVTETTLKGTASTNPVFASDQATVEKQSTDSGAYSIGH

[10] = Cmax in rat at 3 mg/kg, po; type: ADME, organism-based; set-up: route oral, dose 3 mg/kg; settings: in vivo

Chain of Cytochrome P450 2C9 (P11712 whole entry): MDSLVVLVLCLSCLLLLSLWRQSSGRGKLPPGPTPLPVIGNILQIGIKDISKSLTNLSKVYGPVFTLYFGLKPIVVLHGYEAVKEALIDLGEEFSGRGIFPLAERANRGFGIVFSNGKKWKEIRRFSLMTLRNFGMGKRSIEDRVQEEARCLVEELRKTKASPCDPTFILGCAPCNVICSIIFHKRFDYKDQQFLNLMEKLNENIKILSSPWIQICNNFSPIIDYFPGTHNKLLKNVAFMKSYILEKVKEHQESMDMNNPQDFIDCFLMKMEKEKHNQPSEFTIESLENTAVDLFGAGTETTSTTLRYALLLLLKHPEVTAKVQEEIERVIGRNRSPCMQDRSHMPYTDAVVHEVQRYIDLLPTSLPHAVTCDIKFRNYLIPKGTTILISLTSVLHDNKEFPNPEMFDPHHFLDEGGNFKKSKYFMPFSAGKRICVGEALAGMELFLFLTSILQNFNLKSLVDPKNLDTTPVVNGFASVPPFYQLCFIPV
Chain of Cytochrome P450 2C19 (P33261 whole entry): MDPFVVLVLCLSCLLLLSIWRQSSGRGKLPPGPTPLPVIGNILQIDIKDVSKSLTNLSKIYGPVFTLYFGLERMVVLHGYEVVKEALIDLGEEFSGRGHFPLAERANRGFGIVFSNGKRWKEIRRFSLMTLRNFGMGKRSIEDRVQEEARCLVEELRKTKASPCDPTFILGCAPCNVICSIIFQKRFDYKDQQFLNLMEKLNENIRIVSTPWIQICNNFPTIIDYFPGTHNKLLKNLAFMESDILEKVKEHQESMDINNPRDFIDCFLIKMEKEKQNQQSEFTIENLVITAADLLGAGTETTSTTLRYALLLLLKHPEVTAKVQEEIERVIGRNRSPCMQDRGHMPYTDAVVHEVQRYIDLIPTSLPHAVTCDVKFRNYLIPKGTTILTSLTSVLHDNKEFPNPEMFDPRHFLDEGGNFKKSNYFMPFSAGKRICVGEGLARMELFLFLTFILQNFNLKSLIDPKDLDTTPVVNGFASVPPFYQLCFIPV

Q: Which results are given for `C[C@@H](Cn1c(=O)[nH]/c(=N\c2ccc(Oc3ccccn3)cc2)n(Cc2ccc(Cl)cc2)c1=O)C(=O)O`?
A: ED50 (Rattus norvegicus [1]): 0.4 mg/kg; AUC [2]: 14000 ng·h/mL; IC50 (P2X purinoceptor 7): > 30 µM; solubility [3]: 31.5 µg/mL (≈ 62 µM); IC50 (P2X purinoceptor 4): > 30 µM; IC50 (P2X purinoceptor 1): > 30 µM; Cp(f) [4]: 658 nM; clearance [5]: 2.7 mL/min/kg; IC50 (P2X purinoceptor 2): > 30 µM; Ratio [6]: 1.57; Activity (Rattus norvegicus [7]): 64%; bioavailability [8]: 52.8%; fraction unbound [9]: 0.01; IC50 (Cytochrome P450 2C9): > 20 µM; IC50 (Cytochrome P450 2C19): > 20 µM; IC50 (P2X purinoceptor 3): 0.004 µM; Cmax [10]: 1630 ng/mL
